Reference: US10550165B2, “Peptide for inducing regeneration of tissue and use thereof” (STEMRIM INC., priority 2011, dated 2020)

Key:
[1] = tested on: rat cerebral infarction model; assay: Middle cerebral artery thread occlusion model (cerebral infarction); type: in vivo; conditions: 50 μg caudal vein
Excerpt: Eight- to ten-week-old male Wister rats were used. Rats were anesthetized by isoflurane inhalation while warming on a keep-warm mat with a body temperature monitor. After confirming that the anesthetic effect was sufficient, cervical hair was removed to expose the skin. The surgical site was sterilized with alcohol. Along the cervical median line, the skin was incised with a scalpel. After the right external carotid artery was ligated and the right common carotid artery was pressurized to temporarily block the blood flow, an occlusion thread made of #4 monofilament nylon with siliconized tip was inserted into the right external carotid artery toward the right internal carotid artery. While releasing the pressure on the common carotid artery, the occlusion thread was advanced along with the blood stream from the internal carotid artery up to the bifurcation to the middle cerebral artery so that the blood flow was blocked. Furthermore, the thread around the right common carotid artery was ligated to completely block the blood flow for 50 minutes. After removing the occlusion thread and loosening the ligature at the common carotid artery, the skin was sutured to complete the surgery.
50 μg of synthetic peptide (1-44) was administered at the caudal vein. The first administration was carried out 6 hours after the production of cerebral infarction. Then, the peptide was administered five times at 24-hour intervals (five days in total).
After 14 days of the final drug administration, the rats were given sufficiently deep anesthesia, and placed in a container filled with carbon dioxide. The complete arrest of heartbeat and breathing was confirmed. Brains were excised and immediately fixed by immersion in buffered 10% formalin. After paraffin embedding, thin sections were prepared and stained with hematoxylin-eosin. Four sections were prepared from each brain at 1.92 mm anterior to bregma (1.92), 0.60 mm anterior to bregma (0.60), 1.56 mm posterior to bregma (−1.56), and 3.24 mm posterior to bregma (−3.24), and the areas were compared.

[2] = tested on: skin flap made on the back of a rat; assay: Skin flap (skin damage) model on the back of rats; type: in vivo; conditions: for area of wound section (necrosed section) in the skin flap: FIG. 25
Experimental: Experimental animals used were SD rats (male, eight weeks old). After sufficiently deep anesthesia by isoflurane inhalation, a rectangular skin incision of 3 cm width×7 cm length was made on the back. The cephalic side was left uncut, and the skin was thoroughly detached from the subcutaneous tissues. The three incised sides were sutured to the surrounding skin using #4 silk suture, and protected with Tegaderm (3M) to prevent bacterial infection.
The full-length mouse HMGB1 (100 μg/administration/day) produced in HEK293 and chemically synthesized HMGB1 peptide (amino acids 1 to 44; 50 μg/administration/day) were diluted to 200 μl with phosphate buffer and administered to rats via the caudal vein. The first administration was performed 6 hours after the surgery, and then the agents were administered every 24 hours a total of five times. Phosphate-buffered physiological saline was administered as a negative control. Tegaderm was removed after one week, and the wound region was observed weekly to measure the areas of necrosis and ulceration.
Experimental animals used were 15 SD rats (male, eight weeks old) per group. After sufficient anesthesia by isoflurane inhalation, a rectangular skin incision of 3 cm width×7 cm length was made on the back. The cephalic side was left uncut, and the skin was thoroughly detached from the subcutaneous tissues. The incised three sides were sutured to the surrounding skin using #4 silk suture, and protected with Tegaderm (3M) to prevent bacterial infection.
Chemically synthesized HMGB1 peptide (amino acids 1-44; 50 μg/administration/day) or HMGB1 peptide (amino acids 17-25; 50 μg/administration/day) was diluted to 200 μl with phosphate buffer and administered to the rats with experimental wound. The first administration was performed 6 hours after the surgery, and then the agents were administered every 24 hours a total of five times. Phosphate-buffered physiological saline was administered as a negative control. Tegaderm was removed after one week, and the wound was observed two weeks after the wound production. Uncured areas (ulceration and necrosis) were measured.

Substance: synthetic peptide (1-44): chemically synthesized HMGB1 peptide, amino acids 1 to 44, mouse HMGB1 sequence (MGKGDPKKPRGKMSSYAFFVQTCREEHKKKHPDASVNFSEFSKK; UniProt P63158 1-44, looked up, fragment)
- infarction area (% ratio to normal brain area in the right brain), four sections ([1]; five administrations, versus negative control (PBS), FIG. 17): significantly reduced as compared to the negative control group
- animals showing expansion of the infarction to the cortex ([1]; N=10, first 6 h after infarction, five times at 24-hour intervals, 14 days after final administration, negative control 8 of 11): only one mouse showed expansion of the infarction to the cortex
- animals in which the infarction was limited in the basal nucleus ([1]; N=10, five administrations, 14 days after final administration): 9
- area of wound section (necrosed section) in the skin flap ([2]; after four weeks and later, versus the other two groups): a further shrinking effect was observed
- area of wound section (necrosed section) in the skin flap ([2]; one to three weeks after the skin flap was made, versus negative control): effect of shrinking the wound section was confirmed
- rats in which skin necrosis developed ([2]; one week after surgery, caudal vein, five administrations, full-length 100 μg, peptide 50 μg/administration/day, negative control four of five): one of five rats
- rats with severe skin contracture ([2]; seven weeks after surgery, same regimen, negative control four of five, FIG. 24): two of five rats
- ratio of the uncured area relative to the area of the whole skin flap, average ([2]; two weeks after skin flap production, 50 μg/administration/day, five administrations, 15 SD rats per group, FIG. 26): 14.1%
